# Assays:
# Test in all cases: MIC and MBC, broth microdilution
# Format in all cases: cell-based, Clostridium difficile
# [1] = tested on: C. difficile ATCC 1801; details: Clostridioides difficile, ATCC1801, C. difficile ATCC 1801; for MBC: read-out: MBC; for MIC: read-out: MIC
# Protocol: (§1) Antibacterial activity of Diiodohydroxyquinoline against a wide panel of Clostridium difficile strains. […] MIC50 and MIC90 are the minimum concentration of each agent that inhibited growth of 50% and 90% of the tested isolates, respectively. The minimum bactericidal concentration (MBC) of these drugs was tested by plating 5 μL from wells with no growth onto BHIS agar plates. The MBC was categorized as the lowest concentration that reduced bacterial growth by 99.9% MIC50 and MIC90 are the minimum concentration of each agent that inhibited the growth of 50% and 90% of the tested isolates, respectively. The minimum bactericidal concentration (MBC) of these drugs was tested by plating 5 μL from wells with no growth onto BHIS agar plates. The MBC was categorized as the lowest concentration that reduced bacterial growth by 99.9% [29-31].
# [2] = tested on: C. difficile ATCC 43255; details: Clostridioides difficile, ATCC43255, C. difficile ATCC 43255; for MBC: read-out: MBC; for MIC: read-out: MIC
# Protocol: as §1
# [3] = tested on: C. difficile HM-745; details: Clostridioides difficile, HM745, C. difficile HM-745; for MBC: read-out: MBC; for MIC: read-out: MIC
# Protocol: as §1
# [4] = tested on: C. difficile I10; details: Clostridioides difficile, C. difficile I10; for MBC: read-out: MBC; for MIC: read-out: MIC
# Protocol: as §1
# [5] = tested on: C. difficile I11; details: Clostridioides difficile, C. difficile I11; for MBC: read-out: MBC; for MIC: read-out: MIC
# Protocol: as §1
# [6] = tested on: C. difficile I13; details: Clostridioides difficile, C. difficile I13; for MBC: read-out: MBC; for MIC: read-out: MIC
# Protocol: as §1
# [7] = tested on: C. difficile I9; details: Clostridioides difficile, C. difficile I9; for MBC: read-out: MBC; for MIC: read-out: MIC
# Protocol: as §1
# [8] = tested on: C. difficile NR-49278; details: Clostridioides difficile, NR49278, C. difficile NR-49278; for MBC: read-out: MBC; for MIC: read-out: MIC
# Protocol: as §1
# [9] = tested on: C. difficile NR-49285; details: Clostridioides difficile, NR49285, C. difficile NR-49285; for MBC: read-out: MBC; for MIC: read-out: MIC
# Protocol: as §1
# [10] = tested on: C. difficile NR-49288; details: Clostridioides difficile, NR49288, C. difficile NR-49288; for MBC: read-out: MBC; for MIC: read-out: MIC
# Protocol: as §1
# [11] = tested on: C. difficile P15; details: Clostridioides difficile, C. difficile P15; for MBC: read-out: MBC; for MIC: read-out: MIC
# Protocol: as §1
# [12] = tested on: C. difficile P19; details: Clostridioides difficile, C. difficile P19; for MBC: read-out: MBC; for MIC: read-out: MIC
# Protocol: as §1
# [13] = tested on: C. difficile P20; details: Clostridioides difficile, C. difficile P20; for MBC: read-out: MBC; for MIC: read-out: MIC
# Protocol: as §1
# [14] = tested on: C. difficile P30; details: Clostridioides difficile, C. difficile P30; for MBC: read-out: MBC; for MIC: read-out: MIC
# Protocol: as §1
# [15] = tested on: C. difficile P3; details: Clostridioides difficile, C. difficile P3; for MBC: read-out: MBC; for MIC: read-out: MIC
# Protocol: as §1
# [16] = tested on: C. difficile P5; details: Clostridioides difficile, C. difficile P5; for MBC: read-out: MBC; for MIC: read-out: MIC
# Protocol: as §1
# [17] = tested on: C. difficile ATCC 9689; details: Clostridioides difficile, ATCC9689, C. difficile ATCC 9689; for MBC: read-out: MBC
# How it was run: (§2)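 After the MIC read, contents of clear wells are spotted onto BHIS agar plates. The bactericidal endpoint is the lowest drug level achieving 99.9% growth reduction; MIC50 and MIC90 denote concentrations inhibiting half and nine-tenths of the isolate panel.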
# [18] = tested on: C. difficile ATCC BAA-1870; details: Clostridioides difficile, ATCCBAA1870, C. difficile ATCC BAA-1870
# How it was run: as §2
# [19] = tested on: C. difficile HM-89; details: Clostridioides difficile, HM89, C. difficile HM-89
# How it was run: as §2
# [20] = tested on: C. difficile I2; details: Clostridioides difficile, C. difficile I2
# How it was run: as §2
# [21] = tested on: C. difficile I4; details: Clostridioides difficile, C. difficile I4
# How it was run: as §2
# [22] = tested on: C. difficile NR-49277; details: Clostridioides difficile, NR49277, C. difficile NR-49277
# How it was run: as §2
# [23] = tested on: C. difficile NR-49281; details: Clostridioides difficile, NR49281, C. difficile NR-49281
# How it was run: as §2
# [24] = tested on: C. difficile NR-49290; details: Clostridioides difficile, NR49290, C. difficile NR-49290; for MBC: read-out: MBC
# How it was run: as §2
# [25] = tested on: C. difficile P11; details: Clostridioides difficile, C. difficile P11; for MBC: read-out: MBC
# How it was run: as §2
# [26] = tested on: C. difficile P13; details: Clostridioides difficile, C. difficile P13; for MBC: read-out: MBC
# How it was run: as §2
# [27] = tested on: C. difficile P2; details: Clostridioides difficile, C. difficile P2; for MBC: read-out: MBC
# How it was run: as §2
smiles,measurement,setting,value
"CCc1c(Cl)c(O)c(Cl)c(O)c1C(=O)O[C@H]1[C@H](O)[C@H](OC)[C@H](OC/C2=C\C=C\C[C@H](O)/C(C)=C/[C@H](CC)[C@@H](O[C@@H]3OC(C)(C)[C@@H](OC(=O)C(C)C)[C@H](O)[C@@H]3O)/C(C)=C/C(C)=C/C[C@@H]([C@@H](C)O)OC2=O)O[C@@H]1C [Fidaxomicin, fidaxomicin]",MBC,[1],0.125 µg/mL
same,MIC,[1],0.06 µg/mL
same,MBC,[2],0.015 µg/mL
same,MIC,[2],0.015 µg/mL
same,MBC,[3],0.125 µg/mL
same,MIC,[3],0.06 µg/mL
same,MBC,[4],0.03 µg/mL
same,MIC,[4],0.015 µg/mL
same,MBC,[5],0.015 µg/mL
same,MIC,[5],0.015 µg/mL
same,MBC,[6],0.03 µg/mL
same,MIC,[6],0.03 µg/mL
same,MBC,[7],0.03 µg/mL
same,MIC,[7],0.03 µg/mL
same,MBC,[8],0.015 µg/mL
same,MIC,[8],0.007 µg/mL
same,MBC,[9],0.03 µg/mL
same,MIC,[9],0.015 µg/mL
same,MBC,[10],0.015 µg/mL
same,MIC,[10],0.007 µg/mL
same,MBC,[11],0.06 µg/mL
same,MIC,[11],0.06 µg/mL
same,MBC,[12],0.06 µg/mL
same,MIC,[12],0.03 µg/mL
same,MBC,[13],0.015 µg/mL
same,MIC,[13],0.015 µg/mL
same,MBC,[14],0.007 µg/mL
same,MIC,[14],0.007 µg/mL
same,MBC,[15],0.03 µg/mL
same,MIC,[15],0.015 µg/mL
same,MBC,[16],0.03 µg/mL
same,MIC,[16],0.03 µg/mL
same,MBC,[17],0.03 µg/mL
same,MIC,[17]; read-out: MIC,0.03 µg/mL
same,MBC,[18]; read-out: MBC,0.03 µg/mL
same,MIC,[18]; read-out: MIC,0.03 µg/mL
same,MBC,[19]; read-out: MBC,0.03 µg/mL
same,MIC,[19]; read-out: MIC,0.03 µg/mL
same,MBC,[20]; read-out: MBC,0.007 µg/mL
same,MIC,[20]; read-out: MIC,0.007 µg/mL
same,MBC,[21]; read-out: MBC,0.015 µg/mL
same,MIC,[21]; read-out: MIC,0.015 µg/mL
same,MBC,[22]; read-out: MBC,0.03 µg/mL
same,MIC,[22]; read-out: MIC,0.03 µg/mL
same,MBC,[23]; read-out: MBC,0.007 µg/mL
same,MIC,[23]; read-out: MIC,0.007 µg/mL
same,MBC,[24],0.015 µg/mL
same,MIC,[24]; read-out: MIC,0.015 µg/mL
same,MBC,[25],0.03 µg/mL
same,MIC,[25]; read-out: MIC,0.03 µg/mL
same,MBC,[26],0.015 µg/mL
same,MIC,[26]; read-out: MIC,0.015 µg/mL
same,MBC,[27],0.03 µg/mL
same,MIC,[27]; read-out: MIC,0.03 µg/mL
"Cc1ncc([N+](=O)[O-])n1CCO [Metronidazole, metronidazole]",MBC,[1],0.25 µg/mL
same,MIC,[1],0.25 µg/mL
same,MBC,[2],0.25 µg/mL
same,MIC,[2],0.25 µg/mL
same,MBC,[3],0.5 µg/mL
same,MIC,[3],0.5 µg/mL
same,MBC,[4],0.25 µg/mL
same,MIC,[4],0.25 µg/mL
same,MBC,[5],0.25 µg/mL
same,MIC,[5],0.25 µg/mL
same,MBC,[6],0.5 µg/mL
same,MIC,[6],0.25 µg/mL
same,MBC,[7],0.06 µg/mL
same,MIC,[7],0.06 µg/mL
same,MBC,[8],0.5 µg/mL
same,MIC,[8],0.25 µg/mL
same,MBC,[9],0.5 µg/mL
same,MIC,[9],0.25 µg/mL
same,MBC,[10],0.25 µg/mL
same,MIC,[10],0.25 µg/mL
same,MBC,[11],0.25 µg/mL
same,MIC,[11],0.25 µg/mL
same,MBC,[12],0.25 µg/mL
same,MIC,[12],0.25 µg/mL
same,MBC,[13],0.25 µg/mL
same,MIC,[13],0.25 µg/mL
same,MBC,[14],0.5 µg/mL
same,MIC,[14],0.5 µg/mL
same,MBC,[15],0.25 µg/mL
same,MIC,[15],0.25 µg/mL
same,MBC,[16],0.25 µg/mL
same,MIC,[16],0.25 µg/mL
same,MBC,[17],0.25 µg/mL
same,MBC,[24],0.25 µg/mL
same,MBC,[25],0.25 µg/mL
same,MBC,[26],0.25 µg/mL
same,MBC,[27],0.25 µg/mL
